Data taken from US20030040540A1, “Bromonitrothienyldioxanes” (priority 2001, published 2003).
Values after ≈ are worked out from the molar mass of the structure shown.

What was measured:
Pseudomonas aeroginosa = experiment: MIC against bacteria on Landy agar (Use Example A); type: cell-based; conditions: 3 days at 28° C., 60 to 70% relative atmospheric humidity, no colonization whatsoever; for MIC: Pseudomonas, 72 h, read-out: Minimum inhibitory concentrations Pseudomonas aeroginosa
Method: (§1) The MIC was determined after 3 days of storage at 28° C. and 60 to 70% relative atmospheric humidity.

Chaetomium globusum = experiment: MIC against fungi on malt extract agar (Use Example B); type: cell-based; conditions: 2 weeks at 28° C., 60 to 70% relative atmospheric humidity, no colonization whatsoever; for MIC: Chaetomium, 336 h, read-out: Minimum inhibitory concentrations Chaetomium globusum
Method: (§2) The MIC was determined after 2 weeks of storage at 28° C. and 60 to 70% relative atmospheric humidity.

Aspergillus niger = experiment: as above; type: cell-based; conditions: 2 weeks at 28° C., 60 to 70% relative atmospheric humidity, no colonization whatsoever; for MIC: Aspergillus niger, 336 h, read-out: Minimum inhibitory concentrations Aspergillus niger
Method: as §2

Bacillus subtilis = experiment: MIC against bacteria on Landy agar (Use Example A); type: cell-based; conditions: 3 days at 28° C., 60 to 70% relative atmospheric humidity, no colonization whatsoever; for MIC: Bacillus subtilis, 72 h, read-out: Minimum inhibitory concentrations Bacillus subtilis
Method: as §1

Penicillium brevicaule = experiment: MIC against fungi on malt extract agar (Use Example B); type: cell-based; conditions: 2 weeks at 28° C., 60 to 70% relative atmospheric humidity, no colonization whatsoever; for MIC: Penicillium, 336 h, read-out: Minimum inhibitory concentrations Penicillium brevicaule
Method: as §2

MIC (Pseudomonas aeroginosa) | MIC (Chaetomium globusum) | MIC (Aspergillus niger) | MIC (Bacillus subtilis) | MIC (Penicillium brevicaule) | melting point | Structure (SMILES) | Minimum inhibitory concentrations Chaetomium globusum (Chaetomium globusum) | Minimum inhibitory concentrations Aspergillus niger (Aspergillus niger) | Minimum inhibitory concentrations Penicillium brevicaule (Penicillium brevicaule) | Minimum inhibitory concentrations Pseudomonas aeroginosa (Pseudomonas aeroginosa) | Minimum inhibitory concentrations Bacillus subtilis (Bacillus subtilis)
750 µg/mL (≈ 3540 µM) | 500 µg/mL (≈ 2360 µM) | 1000 µg/mL (≈ 4720 µM) |  |  |  | O=[N+]([O-])C1(Br)COCOC1 [5-bromo-5-nitro-1,3-dioxane, reference compound] |  |  |  |  | 
100 µg/mL (≈ 340 µM) | 100 µg/mL (≈ 340 µM) | 200 µg/mL (≈ 680 µM) | < 40 µg/mL | < 40 µg/mL |  | O=[N+]([O-])C1(Br)COC(c2cccs2)OC1 (stereo not shown) [Example 1, 5-bromo-5-nitro-2-(2-thienyl)-1,3-dioxane] |  |  |  |  | 
100 µg/mL (≈ 304 µM) | < 40 µg/mL | 100 µg/mL (≈ 304 µM) | < 40 µg/mL | < 40 µg/mL | 55 to 57 °C | O=[N+]([O-])C1(Br)COC(c2ccc(Cl)s2)OC1 (stereo not shown) [Example 2, 5-bromo-2-(5-chloro-2-thienyl)-5-nitro-1,3-dioxane] |  |  |  |  | 
 |  |  |  |  |  | O=[N+]([O-])C1(Br)COC(c2ccc(Br)s2)OC1 (stereo not shown) [Example 3] | 100 ppm | 200 ppm | <40 ppm |  | 
 |  |  |  |  |  | Cc1ccc(C2OCC(Br)([N+](=O)[O-])CO2)s1 (stereo not shown) [Example 4] | 100 ppm | 200 ppm | <40 ppm |  | 
 |  |  |  |  |  | Cc1ccsc1C1OCC(Br)([N+](=O)[O-])CO1 (stereo not shown) [Example 5] | <40 ppm | 200 ppm | <40 ppm |  | 
 |  |  |  |  |  | O=[N+]([O-])c1ccc(C2OCC(Br)([N+](=O)[O-])CO2)s1 (stereo not shown) [Example 7] | 100 ppm | 200 ppm | <40 ppm | 200 ppm | <40 ppm
 |  |  |  |  |  | O=[N+]([O-])c1sc(C2OCC(Br)([N+](=O)[O-])CO2)cc1Br (stereo not shown) [Example 8] | 400 ppm | >400 ppm | 200 ppm |  | 
